In US20030104473A1, “Common ligand mimics: benzimidazoles” (priority 2001, published 2003):

What was measured:
Details in all cases: Example 13 oxidoreductase panel (FIG. 7)
[1] = biological target: T1, HMG CoA reductase (HMGCoAR) (UniProt P04035); assay: HMGCoAR kinetic assay, spectrophotometric oxidation of NADPH at 340 nm; assay type: biochemical
T1 sequence (P04035 1-888): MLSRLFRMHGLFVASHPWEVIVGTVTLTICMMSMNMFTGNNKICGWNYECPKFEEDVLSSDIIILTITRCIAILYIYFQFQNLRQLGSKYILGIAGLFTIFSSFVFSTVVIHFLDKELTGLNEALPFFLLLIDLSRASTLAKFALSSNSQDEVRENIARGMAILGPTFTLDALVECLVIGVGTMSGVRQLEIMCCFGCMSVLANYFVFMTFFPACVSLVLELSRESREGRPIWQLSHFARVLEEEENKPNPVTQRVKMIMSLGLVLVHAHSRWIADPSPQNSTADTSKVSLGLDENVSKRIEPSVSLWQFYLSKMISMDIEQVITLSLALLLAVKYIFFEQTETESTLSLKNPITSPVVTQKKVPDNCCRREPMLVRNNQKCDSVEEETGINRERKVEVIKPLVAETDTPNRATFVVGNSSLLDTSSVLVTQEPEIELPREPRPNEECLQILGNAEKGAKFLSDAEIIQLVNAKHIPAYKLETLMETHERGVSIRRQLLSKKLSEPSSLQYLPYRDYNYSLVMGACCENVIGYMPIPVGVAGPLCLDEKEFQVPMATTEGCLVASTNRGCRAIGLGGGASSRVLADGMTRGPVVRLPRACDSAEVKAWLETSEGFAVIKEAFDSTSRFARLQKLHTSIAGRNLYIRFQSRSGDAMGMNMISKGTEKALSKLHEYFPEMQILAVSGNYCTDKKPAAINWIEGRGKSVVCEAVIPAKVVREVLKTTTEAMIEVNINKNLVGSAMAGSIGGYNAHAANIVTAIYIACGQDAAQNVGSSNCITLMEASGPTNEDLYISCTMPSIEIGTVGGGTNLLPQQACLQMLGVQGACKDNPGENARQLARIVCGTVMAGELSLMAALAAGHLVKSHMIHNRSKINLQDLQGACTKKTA
Protocol: For HMGCoAR analysis, the compounds were screened using a kinetic protocol that spectrophotometrically evaluates oxidation of NADPH.
Stock solutions of each of the reagents were prepared in the following concentrations. Dilutions of the stock solutions were prepared prior to running the assay in the concentrations indicated below. The enzyme was diluted in 1 M NaCl. To prepare the dilution buffer, 10 μl of HMGCoAR (1 mg/ml) was mixed with 133 μl of 3 M NaCl solution and 257 μl of 25 mM KH2PO4 buffer (pH 7.5; containing 50 mM NaCl, […] EDTA (ethylenediaminetetraacetic acid), and 5 mM DTT (dithiothreitol).
The HMGCoAR reaction was monitored at 340 nm prior to and after addition of the inhibitor to detect background reaction with the inhibitor. Solutions of 100 μM of the inhibitors in DMSO were prepared to provide a final DMSO concentration of 2% of the total assay volume. These solutions were incubated for 6 minutes at 25° C. in a 994 μl of a solution containing 25 mM KH2PO4, pH 7.5, 160 μM HMGCoA, 13 μM NADPH, 50 mM NaCl, 1 mM EDTA, and 5 mM DTT. The reaction was then initiated with 5 μl of HMGCoAR enzyme (1:40 dilution of 0.65 mg/ml). After the enzyme was added, the solution was mixed for 20 seconds, and the reaction was run for 10 minutes. After a 50 second lag, the samples were read in a Cary spectrophotometer at 340 nm. Reading of the samples was continued until 300 seconds. […]

[2] = biological target: Human Aldose Reductase (AR) (Homo sapiens, UniProt P15121); assay: AR kinetic assay, spectrophotometric measurement of enzyme activity at 340 nm; assay type: biochemical
Protocol: For AR analysis, the compounds were screened using a kinetic protocol that spectrophotometrically measures enzyme activity.
(§1) Stock solutions of each of the reagents were prepared in the following concentrations. Dilutions of the stock solutions were prepared prior to running the assay in the concentrations indicated below.
The AR reaction was monitored at 340 nm prior to and after addition of the inhibitor to detect background reaction with the inhibitor. Solutions of 100 μl of the inhibitors in DMSO were prepared to provide a final DMSO concentration of 5% of the total assay volume. These solutions were incubated for 5 minutes at 25° C. in a 990 μl of a solution containing 100 mM potassium phosphate, pH 7.5, 0.3 M ammonium sulfate, 1.0 mM ethylenediaminetetraacetic acid (EDTA), 3.8 μM B-Nicotinamide adenine dinucleotide phosphate (NADPH), 171 μM DL-glyceraldehyde and 0.1 mM DL-dithiothreitol. The reaction was then initiated with 10 μl of Human Aldose Reductase (1:5 dilution of 0.55 mg/ml). After the enzyme was added, the solution was mixed for 20 seconds, and the reaction was run for 10 minutes. After a 50 second lag, the samples were read in a Cary spectrophotometer at 340 nm. Reading of the samples was continued until 300 seconds. The final DMSO concentration in the cuvette was 5%. […]

[3] = biological target: T2, lactate dehydrogenase (LDH) (Oryctolagus cuniculus, UniProt P13491); assay: LDH kinetic assay, spectrophotometric oxidation of NADH at 340 nm; assay type: biochemical, Rabbit Muscle
T2 construct: 10 μl of LDH from Rabbit Muscle; from tissue; host or cells: rabbit muscle
Protocol: For LDH analysis, the compounds were screened using a kinetic protocol that spectrophotometrically evaluates oxidation of NADH.
as §1
The LDH reaction was monitored at 340 nm prior to and after addition of the inhibitor to detect background reaction with the inhibitor. Solutions of 100 μl of the inhibitors in DMSO were prepared to provide a final DMSO concentration of 5% of the total assay volume. These solutions were incubated for 6 minutes at 25° C. in a 990 μl of a solution containing 0.1 M HEPES, pH 7.4, 10 μM NADH, and 2.5 mM of pyruvate. The reaction was then initiated with 10 μl of LDH from Rabbit Muscle (0.5 μg/ml; 1:2000 dilution of 1.0 mg/ml). After the enzyme was added, the solution was mixed for 20 seconds, and the reaction was run for 10 minutes. After a 50 second lag, the samples were read in a Cary spectrophotometer at 340 nm. Reading of the samples was continued until 300 seconds. Cuvette #1 contained the control reaction (no inhibitor), and cuvette #2 contained the positive control reaction in which Cibacron Blue at 10.3 μM was substituted for inhibitor to yield 50 to 70% inhibition. The substrate was kept at a level at least 10 times the Km.

Structure (SMILES) | IC50 [1] [µM] | IC50 [2] [µM] | IC50 [3] [µM]
O=C(O)c1ccc(-c2ccc(-c3nc4ccccc4[nH]3)o2)cc1 [compound 6b, 4-[5-(1H-benzoimidazol-2-yl)-furan-2-yl] benzoic acid] | 22 | 35 | –
O=C(O)c1ccc(-c2ccc(-c3nc4cc([N+](=O)[O-])ccc4[nH]3)o2)cc1 [compound 6d, 4-[5-(5-nitro-1H-benzoimidazol-2-yl)-furan-2-yl]-benzoic acid] | – | – | 4.56
